{"source": "patent US11078519B2", "about": "“Bioluminescent assays utilising secreted luciferases” (GENE STREAM PTY LTD., priority 2006, dated 2021)", "key": {"[1]": {"test_system": "non-secreted Gaussia luciferase", "assay": "Kinetic luminescence assay of non-secreted Gaussia luciferase in HeLa cell lysate with reducing agent in assay buffer", "format": "biochemical", "details": "for decay in luminescent signal over time compared with absence of reducing agent: all concentrations tested: DTT 4-50 mM, β-mercaptoethanol 10-100 mM, TCEP 500 uM or 5 mM, FIGS. 1A, 1B", "procedure": "HeLa cells stably expressing non-secreted and destabilized Gaussia luciferase were plated onto 96-well plates and incubated overnight. The non-secreted luciferase is a modified Gaussia luciferase in which the 14 amino acid N-terminal signal peptide has been deleted. The destabilised luciferase is an enzyme containing a destabilising element such that it has a shortened half-life and is expressed at lower steady-state level than in the absence of the destabilising element.\nFollowing the overnight incubation, medium was removed and the cells lysed in 20 ul lysis buffer comprising 25 mM Tris pH 8.1, 150 mM NaBr, 1 mM EDTA, 63.4 uM sodium oxalate, 0.1% NP40 substitute, 5% glycerol (GSv3). Luciferase activity was measured in a kinetic assay following injection of 60 ul of an assay buffer comprising 25 mM Tris pH 8.1; 1 mM EDTA, 2 mM Ascorbate and 26 uM Cz (STD), or the same assay buffer but also containing a reducing agent. Various concentrations of three reducing agents were used: DTT (4 mM, 10 mM, 20 mM or 50 mM); β-mercaptoethanol (10 mM, 20 mM, 50 mM, or 100 mM); and TCEP (500 uM or 5 mM). […] The effect was strongest at higher concentrations of a given reducing agent. […] The inventors have determined that this higher concentration produced beneficial effects in terms of bioluminescence generated by Gaussia luciferase. […]"}, "[2]": {"test_system": "non-secreted Metridia luciferase", "assay": "Kinetic luminescence assay of non-secreted Metridia luciferase in HeLa cell lysate", "format": "biochemical", "details": "up to 120 minutes", "from_the_text": "(§1) HeLa cells were transiently transfected with expression plasmids encoding either Gaussia or Metridia luciferases in either their native secreted form or a modified non-secreted form. Secreted Metridia luciferase was obtained from Clontech and non-secreted Metridia luciferase was created in an analogous way to non-secreted Gaussia luciferase. The coding region was obtained by PCR using primers that delete the first 16 amino acids after ATG (the secretion signal) and the stop codon. The PCR product was ligated into a pRR23.1 plasmid (GeneStream, AU) to create a non-secreted but destabilized Metridia luciferase.\nOne day after transfection conditioned medium was removed for the secreted luciferases and the non-secreted luciferases were lysed as described in Example 1. Aliquots (20 ul) of conditioned medium or lysate were assayed for luciferase activity in kinetic assays following manual injection of assay buffer comprising the indicated concentrations of DTT in 25 mM Tris pH 7.75; 1 mM EDTA; 2 mM Ascorbic acid and 26 uM coelenterazine.\nExperiments were performed as described in Example 5 for the non-secreted Gaussia and Metridia luciferases, except that the reducing agents used were: dithioerythritol (DTE) (FIGS. 6A and 6D); sodium sulfite (FIG. 6B); cysteamine (FIGS. 6C and 6E); TCEP (FIG. 6F); and β-mercaptoethanol (FIG. 6G)."}, "[3]": {"test_system": "secreted Gaussia luciferase", "assay": "Secreted Gaussia luciferase signal in cell lysate, lysis buffer with DTT", "format": "biochemical", "details": "50 mM DTT in lysis buffer; 2 hour time-point, without doxycycline; FIG. 11B", "procedure": "To test this hypothesis, HeLa cells were co-transfected with plasmids TRE-Rn and CMV-Ga (wild type, secreted), either alone or in combination. The latter provides constitutive expression of secreted Gaussia luciferase, whilst the former provides a doxycycline-repressible expression of intracellular Renilla luciferase. The cells were incubated overnight, the medium was removed and the cells rinsed once before addition of a fresh aliquot of medium either with or without 2 ug/ml doxycyline. At 2, 6 and 24 hrs later, samples of conditioned medium were taken. The cells were rinsed in fresh medium before being lysed using lysis buffer comprising 25 mM Tris pH 8.1, 150 mM NaBr, 1 mM EDTA, 63.4 uM sodium oxalate, 0.1% NP40 substitute, 5% glycerol; either with or without 50 mM DTT. 20 ul aliquots of conditioned medium and cell lysate were then assayed for luciferase activity following addition of 60 ul of assay buffer comprising 25 mM Tris pH 7.75; 1 mM EDTA; 2 mM Ascorbic acid and 26 uM coelenterazine."}, "[4]": {"test_system": "wild-type secreted Gaussia luciferase", "assay": "Kinetic luminescence assay of secreted Gaussia luciferase in conditioned medium", "format": "biochemical", "procedure": "Similar experiments were performed as described in Example 1 with the exception that the effect of DTT on the time course of luminescence was also investigated for the wild-type secreted Gaussia luciferase. This was achieved by transiently transfecting HeLa cells with a reporter plasmid encoding the wild-type Gaussia luciferase protein and harvesting the conditioned medium 24 hrs later. The assay buffer (with either 50 mM DTT or no DTT) was injected into wells containing 20 ul of the conditioned medium. Results were expressed as the % signal remaining compared to time zero (see FIG. 3).\nas §1\nOne day after transfection conditioned medium was removed for the secreted luciferases and the non-secreted luciferases were lysed as described in Example 1. […]"}, "[5]": {"test_system": "non-secreted and destabilized Gaussia luciferase", "assay": "Dual-luciferase assay (Gaussia then firefly) in HeLa cell lysate", "format": "biochemical", "details": "Gaussia assay buffer with 50 mM DTT; FIG. 8", "procedure": "HeLa cells stably expressing both a non-secreted and destabilized Gaussia luciferase and a destabilized firefly luciferase were plated onto 96-well plates and incubated overnight. Medium was removed and the cells lysed in 20 ul of the lysis buffer described in Example 1. Light emission was measured for 1 sec in a luminometer at the following times: immediately before addition of assay buffer (LB=background signal in absence of substrate); immediately after addition of Gaussia assay buffer (Ga) comprising 25 mM Tris pH 8.1; 1 mM EDTA, 2 mM Ascorbate, 23.6 uM Cz and 50 mM DTT; 15 mins after addition of Ga assay buffer (15 mins); and subsequently at 1 sec after addition of 60 ul of a firefly assay buffer (FF) comprising 25 mM Tris pH 7.35, 6 mM MgSO4, 36 mM DTT, 0.11 mM EDTA, 0.58 mM ATP, 0.3 mM CoA, 0.52 mM Luciferin, 1 mg/ml BSA. The results shown in FIG. 8 illustrate a strong Gaussia luciferase bioluminescent signal that can be measured in a flash reaction but which decays to background levels within approximately 15 mins without intervention or the need to add quenching reagents. Subsequent addition of a firefly reagent allows measurement of the firefly signal, thus completing a dual-luciferase assay."}, "[6]": {"test_system": "secreted Metridia luciferase", "assay": "Kinetic luminescence assay of secreted Metridia luciferase in conditioned medium", "format": "biochemical", "details": "varying DTT in assay buffer; up to 120 minutes; FIG. 5D", "from_the_text": "as §1, with “Metridia luciferase. One day after transfection conditioned medium was removed for the secreted luciferases and the non-secreted luciferases were lysed as described in Example 1. Aliquots (20 ul) of conditioned medium or lysate were assayed for luciferase activity in kinetic assays following manual injection of assay buffer comprising the indicated concentrations of DTT in 25 mM Tris pH 7.75; 1 mM EDTA; 2 mM Ascorbic acid and 26 uM coelenterazine.” for “Metridia luciferase.”"}, "[7]": {"biological_target": "T1, intracellular Renilla luciferase (Renilla reniformis, UniProt P27652)", "T1 construct": "expressed in transfected cells; host or cells: HeLa, transient; cell lysate", "T1 sequence (P27652 1-311)": "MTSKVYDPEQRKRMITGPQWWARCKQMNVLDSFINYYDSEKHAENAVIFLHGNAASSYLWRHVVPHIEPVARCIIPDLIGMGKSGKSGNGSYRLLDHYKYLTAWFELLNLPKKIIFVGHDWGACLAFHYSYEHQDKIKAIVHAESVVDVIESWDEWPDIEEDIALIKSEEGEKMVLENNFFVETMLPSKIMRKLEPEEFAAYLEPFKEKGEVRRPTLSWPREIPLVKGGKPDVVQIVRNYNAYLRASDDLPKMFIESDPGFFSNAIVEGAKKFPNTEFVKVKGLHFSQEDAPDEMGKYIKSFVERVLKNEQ", "assay": "Kinetic luminescence assay of Renilla luciferase in HeLa cell lysate", "format": "biochemical", "details": "50 mM DTT in assay buffer; FIG. 4", "procedure": "Similar experiment to those described in Example 1 were performed, with the exception that the HeLa cells transiently expressed the intracellular Renilla luciferase. A kinetic assay was performed after injection of assay buffer (with 50 mM DTT or no DTT) into wells containing 20 ul of lysate."}, "[8]": {"assay": "Background luminescent signal in lysate of non-transfected HeLa cells", "details": "DTT in assay buffer", "procedure": "(§2) Non-transfected HeLa cells and HeLa cells expressing non-secreted Gaussia luciferase were subjected to luciferase assays as follows. Cells were plated in equal aliquots onto a 96-well plate and incubated overnight. Medium was removed and cells lysed in 20 ul of the lysis buffer described in Example 1. Forty minutes later, light emission was measured using a Wallac Victor 3 luminometer (Perkin Elmer) immediately before and after injection of 60 ul of assay buffer comprised 25 mM Tris pH 8.1, 23.6 uM coelenterazine, 1 mM EDTA, 2 mM ascorbate plus the indicated concentration of DTT (see FIG. 8)."}, "[9]": {"test_system": "non-secreted Gaussia luciferase", "assay": "Flash intensity of non-secreted Gaussia luciferase in HeLa cell lysate", "format": "biochemical", "details": "50 mM DTT in assay buffer; FIG. 12C", "procedure": "as §2"}, "[10]": {"test_system": "destabilised, non-secreted Gaussia luciferase", "details": "5 mM glutathione (3:2 reduced:oxidized); fresh buffer; FIG. 15", "procedure": "HeLa cells expressing a destabilised, non-secreted Gaussia luciferase were plated in equal aliquots onto 96-well plates and incubated overnight. The same lysis buffer was used for all samples. Luciferase activity was measured using fresh assay buffer containing the total amounts of glutathione (3:2 ratio of reduced:oxidized) indicated in FIG. 15. The assay buffers were then stored at room temperature for 7 hrs or at 4° C. for 22 hrs and used again to measure replicate samples."}, "[11]": {"test_system": "destabilised, non-secreted Gaussia luciferase", "details": "fresh assay buffer with glutathione; FIG. 14", "method": "HeLa cells expressing a destabilised, non-secreted Gaussia luciferase were plated in equal aliquots onto 96-well plates and incubated overnight. The same lysis buffer was used for all samples. […] The assay buffers were then stored at room temperature for 4 hrs and used again to measure replicate samples."}, "[12]": {"details": "varying concentrations of reducing agent, up to 50 minutes, FIGS. 6D-6G"}, "[13]": {"details": "varying concentrations of reducing agent, FIGS. 6A-6C"}}}
{"compound": "O[C@H](CS)[C@@H](O)CS", "note": "[DTE, dithioerythritol]", "values": [{"measurement": "light emission over time", "setting": "[1]; [12]", "value": "rapid decline in light emission"}, {"measurement": "light emission over time", "setting": "[2]; [13]", "value": "rapid decline in light emission"}]}
{"compound": "O[C@H](CS)[C@H](O)CS", "note": "[DTT, dithiothreitol]", "values": [{"measurement": "signal in the lysate of cells expressing only Gaussia luciferase", "setting": "[3]", "value": "no signal was detected"}, {"measurement": "light emission over time (% signal remaining compared to time zero)", "setting": "[1]; 50 mM DTT in assay buffer, modified non-secreted form, FIG. 3", "value": "very rapid decline in light emission"}, {"measurement": "time for signal to drop to approximately background levels (~100 RLU)", "setting": "[1]; DTT 50 mM to 500 mM, all concentrations, FIG. 2B", "value": "≤ 10", "unit": "min"}, {"measurement": "rate of decay in luminescent signal versus concentration", "setting": "[1]; DTT 50 mM to 500 mM, FIG. 2A", "value": "directly related to the concentration of DTT"}, {"measurement": "light emission after addition during glow phase (% of light units at time zero)", "setting": "[1]; DTT added 40 minutes after initiation of reaction, FIG. 7", "value": "rapid decline in light emission"}, {"measurement": "light emission during the first few seconds after injection of the reducing agent", "setting": "[1]; DTT added during glow phase, FIG. 7", "value": "lack of any significant decay in light emission"}, {"measurement": "decay in luminescent signal over time compared with absence of reducing agent", "setting": "[1]", "value": "more rapid decay in luminescent signal"}, {"measurement": "initial signal intensity", "setting": "[1]; up to 50 mM DTT", "value": "does not cause any reduction in initial signal intensity"}, {"measurement": "light emission over time", "setting": "[1]; varying DTT in assay buffer, up to 120 minutes, FIG. 5A", "value": "very rapid decline in light emission"}, {"measurement": "light emission over time (% signal remaining compared to time zero)", "setting": "[4]; 50 mM DTT in assay buffer, native secreted form, conditioned medium, FIG. 3", "value": "very rapid decline in light emission"}, {"measurement": "light emission over time", "setting": "[4]; varying DTT in assay buffer, up to 120 minutes, FIG. 5B", "value": "very rapid decline in light emission"}, {"measurement": "time for Gaussia luciferase signal to decay to background levels", "setting": "[5]", "value": "≤ 15", "unit": "min"}, {"measurement": "light emission over time", "setting": "[6]", "value": "very rapid decline in light emission"}, {"measurement": "light emission over time", "setting": "[2]; varying DTT in assay buffer, FIG. 5C", "value": "very rapid decline in light emission"}, {"measurement": "kinetics of light emission", "setting": "[7]", "value": "prolongs the light emission"}, {"measurement": "reduction in the background signal generated by the assay buffer", "setting": "[8]; after subtraction of the pre-read, FIG. 12B", "value": "more than 80%"}, {"measurement": "reduction in the overall background signal", "setting": "[8]; raw RLU after injection, FIG. 12A", "value": "more than 50%"}, {"measurement": "true luciferase signal in flash reactions", "setting": "[9]", "value": "does not reduce the true luciferase signal"}]}
{"compound": "O=C(O)CCP(CCC(=O)O)CCC(=O)O", "note": "[TCEP, tris(2-carboxyethyl)phosphine]", "values": [{"measurement": "decay in luminescent signal over time compared with absence of reducing agent", "setting": "[1]", "value": "more rapid decay in luminescent signal"}, {"measurement": "light emission over time", "setting": "[1]; [12]", "value": "rapid decline in light emission"}]}
{"compound": "NCCS", "note": "[cysteamine]", "values": [{"measurement": "light emission over time", "setting": "[1]; [12]", "value": "rapid decline in light emission"}, {"measurement": "light emission over time", "setting": "[2]; [13]", "value": "rapid decline in light emission"}]}
{"compound": "N[C@@H](CCC(=O)N[C@@H](CS)C(=O)NCC(=O)O)C(=O)O", "note": "[glutathione]", "values": [{"measurement": "initial activity of assay buffer", "setting": "[10]", "value": "initial activity was reduced"}, {"measurement": "baseline activity of the fresh buffers", "setting": "[11]", "value": "reduces the assay buffer activity"}]}
{"compound": "O=S([O-])[O-].[Na+].[Na+]", "note": "[sodium sulfite]", "values": [{"measurement": "light emission over time", "setting": "[2]; [13]", "value": "rapid decline in light emission"}]}
{"compound": "OCCS", "note": "[β-mercaptoethanol]", "values": [{"measurement": "decay in luminescent signal over time compared with absence of reducing agent", "setting": "[1]", "value": "more rapid decay in luminescent signal"}, {"measurement": "light emission over time", "setting": "[1]; [12]", "value": "rapid decline in light emission"}]}
